{"source": "patent US6511976B1", "about": "“Halogen substituted tetracyclic tetrahydrofuran derivatives” (Jannsen Pharmaceutica, N.V., priority 1997, dated 2003)", "key": {"[1]": {"test_system": "serotonin (central symptoms elicited with the serotonin agonist tryptamine)", "test": "ATN Test in Rats: tryptamine interaction", "type": "in vivo", "settings": "observed at 90 minutes following subcutaneous administration", "description": "(§1) The antipsychotic activity of the subject compounds is evidenced by the experimental data obtained in the combined apomorphine (APO), tryptamine (TRY) and norepinephrine (NOR) test in rats. Said combined apomorphine, tryptamine and norepinephrine test is described in Arch. Int. Pharmacodyn., 227, 238-253 (1977) and provides an empirical evaluation of the relative specificity with which drugs may effect particular neurotransmitter systems centrally (CNS) as well as peripherally. […] The favourable pharmacological property of the present compounds compared to the compounds specifically disclosed in WO 97/38991 lies in their ability to antagonize the central symptoms elicited by apomorphine and tryptamine."}, "[2]": {"test_system": "dopamine (symptoms elicited with the dopamine agonist apomorphine)", "test": "ATN Test in Rats: apomorphine interaction", "type": "in vivo", "settings": "observed at 30 minutes following subcutaneous administration", "description": "as §1"}, "[3]": {"settings": "dose of 300 mg/kg; cited from earlier work"}, "[4]": {"test_system": "mCPP induced effects", "test": "mCPP Test on Rats (pre-test time T of 1 hour)", "type": "in vivo", "settings": "test compound at pre-test time T of 1 hour; 1 mg/kg mCPP intravenously 15 minutes prior to test; Open Field Test", "description": "Rats were treated with the test compound at a varying dose at a pre-test time T of 1 hour and with 1 mg/kg mCPP (metachlorophenylpiperazine), injected intravenously, 15 minutes prior to the test. After pre-test time T elapsed, treated rats were submitted to the “Open Field Test on Rats” as described in Drug Dev. Res. 18, 119-144 (1989), but using an infra-red light source instead of a Kleverlux® (12V/20W) light source. […] Compound numbers 2 and 8 through 16 were active at a test dose of 2.5 mg/kg or lower. Other compounds were either not tested or were active at a higher dose."}}, "data": [{"smiles": "CN(C)CC1CC2c3ccccc3Cc3ccccc3C2O1", "note": "(single isomer, unassigned) [d]", "values": [{"measurement": "ED50, tryptamine interaction: antagonism of backward locomotion", "setting": "[1]", "value": 0.2, "unit": "mg/kg"}, {"measurement": "ED50, tryptamine interaction: antagonism of bilateral clonic convulsions", "setting": "[1]", "value": 0.15, "unit": "mg/kg"}, {"measurement": "ED50, apomorphine interaction: antagonism of agitation and stereotypy", "setting": "[2]", "value": 2.7, "unit": "mg/kg"}]}, {"smiles": "CNCC1CC2c3ccccc3Cc3ccccc3C2O1.O=C(O)C(=O)O", "note": "(racemic) [(±)-3,3a,8,12b-tetrahydro-N-methyl-2H-dibenzo[3,4:6,7]-cyclohepta-[1,2-b]furan-2-methanamine oxalic acid]", "values": [{"measurement": "activity as antidepressant", "setting": "[3]", "value": "inactive"}]}, {"smiles": "CN(C)CC1CC2c3ccccc3Cc3ccccc3C2O1", "note": "(single isomer, unassigned) [a]", "values": [{"measurement": "ED50, tryptamine interaction: antagonism of backward locomotion", "setting": "[1]", "value": 10, "unit": "mg/kg"}, {"measurement": "ED50, tryptamine interaction: antagonism of bilateral clonic convulsions", "setting": "[1]", "value": "≧10 mg/kg"}, {"measurement": "ED50, apomorphine interaction: antagonism of agitation and stereotypy", "setting": "[2]", "value": ">10", "unit": "mg/kg"}]}, {"smiles": "CN(C)CC1CC2c3ccccc3Cc3ccccc3C2O1", "note": "(single isomer, unassigned) [c]", "values": [{"measurement": "ED50, tryptamine interaction: antagonism of backward locomotion", "setting": "[1]", "value": 10, "unit": "mg/kg"}, {"measurement": "ED50, tryptamine interaction: antagonism of bilateral clonic convulsions", "setting": "[1]", "value": 1.25, "unit": "mg/kg"}, {"measurement": "ED50, apomorphine interaction: antagonism of agitation and stereotypy", "setting": "[2]", "value": ">10", "unit": "mg/kg"}]}, {"smiles": "CN(C)CC1CC2c3ccccc3Cc3ccccc3C2O1", "note": "(single isomer, unassigned) [b]", "values": [{"measurement": "ED50, tryptamine interaction: antagonism of backward locomotion", "setting": "[1]", "value": 1.3, "unit": "mg/kg"}, {"measurement": "ED50, tryptamine interaction: antagonism of bilateral clonic convulsions", "setting": "[1]", "value": 1.3, "unit": "mg/kg"}, {"measurement": "ED50, apomorphine interaction: antagonism of agitation and stereotypy", "setting": "[2]", "value": ">10", "unit": "mg/kg"}]}, {"smiles": "CN(C)CC1CC2c3ccccc3Cc3ccc(F)cc3C2O1.Cl", "note": "(racemic) [Compound 2, (±)-(2α,3aβ,12bα)-11-fluoro-3,3a,8,12b-tetrahydro N,N-dimethyl-2H-dibenzo[3,4:6,7]cyclohepta[1,2-b]furan-2-methanamine hydrochloride]", "values": [{"measurement": "active dose (40% or more of the tested rats showed suppression of the mCPP induced effects, mCPP-antagonism)", "setting": "[4]", "value": "≤ 2.5", "unit": "mg/kg"}]}, {"smiles": "CN(C)CC1CC2c3ccccc3Cc3ccc(F)cc3C2O1.O=C(O)C(O)C(O)C(=O)O", "note": "(stereo not drawn) [Compound 11, [B-(2α,3aβ,12bα)]-11-fluoro-3,3a,8,12b-tetrahydro-N,N-dimethyl-2H-dibenzo[3,4:6,7]cyclohepta[1,2-b]furan-2-methanamine (+)-[R-R*,R*)]-2,3-dihydroxybutanedioate (1:1)]", "values": [{"measurement": "ED50, tryptamine interaction: antagonism of backward locomotion", "setting": "[1]", "value": 0.5, "unit": "mg/kg"}, {"measurement": "ED50, tryptamine interaction: antagonism of bilateral clonic convulsions", "setting": "[1]", "value": 0.4, "unit": "mg/kg"}, {"measurement": "ED50, apomorphine interaction: antagonism of agitation and stereotypy", "setting": "[2]", "value": 2.0, "unit": "mg/kg"}]}]}
